From patent US10947202B2, “Sodium ion channel inhibitors and pharmaceutically acceptable salts and polymorphs thereof and uses thereof” (SHANGHAI HAIYAN PHARMACEUTICAL TECHNOLOGY CO., LTD., priority 2017, dated 2021)
In brackets after ≈: the same amount, converted by molar mass.

What was measured:
Type in all cases: physicochemical
Solubility experiment = conditions: for Solubility (mg/mL) 0.1M HCl / Solubility (mg/mL) H2O: room temperature; for Solubility (mg/mL) pH6.8: buffer pH 6.8, room temperature; for Solubility (mg/mL) H2O: water
Experimental: The solubility of crystal forms A, D, E-1, E-3, F and free base sample in buffer of 0.1M HCl, pH 4.5, pH 6.8 and water was tested at room temperature. In the test, the standard curves of free base sample and five crystal forms were plotted. Subsequently, 6 mg of API and five crystal form samples were weighed, respectively, and 2 ml of the solvent was added, the mixture was shaken at room temperature for 4 h, then ultrasonicated for 30 min, centrifuged, and the supernatant was taken out, filtered through a 0.45 μm filter and injected, and the solubility was measured, the results are shown in Table 28 (concentration is in mg/ml).

[1] = Stability experiment (storage of crystal forms, HPLC)
Experimental: High performance liquid chromatography spectrum was acquired on an Agilent 1260 HPLC, the specific instrument and test parameters are shown in the table 18 below.
Another set of samples were sealed at 5° C. and kept as a control at the same time. […]

[2] = Hygroscopicity experiment (DVS)
Source text: The Dynamic Vapor Sorption (DVS) curve was acquired on the DVS Intrinsic of Surface Measurement Systems.
The DVS results for crystal forms A, D, E-3 and F are shown in FIG. 1E, FIG. 4F, FIG. 7E and FIG. 8E, respectively.

[3] = Crystal form stability on shaking in solvent or heating (XRPD)
Experimental: The reaction solution in the step 4 of Example 1 was poured into water, extracted with ethyl acetate, dried and concentrated, ethanol was added to dissolve and the solution was evaporated, 1N hydrochloric acid and ethyl acetate were added and stirred for 1-2 h, filtered, a solid product which was the crystal form III of free base was obtained, the X-ray powder diffraction pattern is shown in FIG. 11A (the 2θ angle has been marked), the DSC/TGA/DVS patterns are shown in FIGS. 11B, 11C and 11D. According to the DSC pattern, there is an inflection point around 100° C., and the sample has a melting absorption peak at 181.9° C. […] The sample was shaken in ACE and MeOH at 50° C. for 1 day, and the crystal form was unchanged.
The reaction solution in the step 4 of Example 1 was poured into water, extracted with ethyl acetate, dried and concentrated to retain a small amount of ethyl acetate, 1N hydrochloric acid was added and stirred for 1 h, filtered, the filter cake was washed with ethanol and then filtered to obtain a solid product which was the crystal form IV of free base was obtained. The X-ray powder diffraction pattern is shown in FIG. 12A (the […] has been marked), the DSC/TGA/DVS patterns are shown in FIGS. 12B, 12C and 12D. […] The sample was shaken in ACE at 50° C. for 1 day, and the crystal form was unchanged. […]

[4] = buffer pH 4.5, room temperature
[5] = 5° C. 0 d, — = below detection limit
[6] = 40° C. 75% RH 14 d, — = below detection limit
[7] = 60° C. 7 d, — = below detection limit
[8] = 60° C. 21 d, — = below detection limit

SMILES	Solubility (mg/mL) 0.1M HCl (Solubility experiment) [mg/mL]	Solubility (mg/mL) pH4.5 (Solubility experiment; [4]) [mg/mL]	Solubility (mg/mL) pH6.8 (Solubility experiment) [mg/mL]	Solubility (mg/mL) H2O (Solubility experiment) [mg/mL]	RRT (%) 0.86 ([1]; 5° C. 0 d) [%]	RRT (%) 1.00 ([1]; 5° C. 0 d) [%]	RRT (%) 1.05 ([1]; 5° C. 0 d) [%]	Total impurities (%) ([1]; 5° C. 0 d)	Content (%) ([1]; 40° C. 75% RH 14 d)	RRT (%) 1.00 ([1]; 40° C. 75% RH 14 d) [%]	RRT (%) 1.05 ([1]; 40° C. 75% RH 14 d) [%]	Total impurities (%) ([1]; 40° C. 75% RH 14 d)	Content (%) ([1]; 60° C. 7 d)	RRT (%) 0.86 ([1]; 60° C. 7 d) [%]	RRT (%) 1.00 ([1]; 60° C. 7 d) [%]	RRT (%) 1.05 ([1]; 60° C. 7 d) [%]	Total impurities (%) ([1]; 60° C. 7 d)	Content (%) ([1]; 60° C. 21 d)	RRT (%) 1.00 ([1]; 60° C. 21 d) [%]	hygroscopicity (DVS curve) [2]	further results
Cc1cc(N2CCN(Cc3cc(F)c(C(=O)NS(=O)(=O)C4CC4)cc3Cl)CC2)ccc1Cl [crystal form A, 5-chloro-4-((4-(4-chloro-3-methylphenyl)piperazin-1-yl)methyl)-N-(cyclopropylsulfonyl)-2-fluorobenzamide]	0.011 (≈ 22 µM)	0.001	0.01	0.005 (≈ 9.99 µM)	0.05	99.84	0.04	0.16	99.8	99.83	0.02	0.17	98.6	0.05	99.84	0.02	0.16	97.6	99.82	slightly hygroscopic	RRT (%) 0.79 [1, 5]: 0.07%; RRT (%) 0.79 [1, 6]: 0.07%; RRT (%) 0.88 [1, 6]: 0.04%; RRT (%) 0.79 [1, 7]: 0.08%; RRT (%) 1.05 ([1]; 60° C. 21 d): 0.03%; Total impurities (%) ([1]; 60° C. 21 d): 0.18%; RRT (%) 0.79 [1, 8]: 0.07%; RRT (%) 0.86 [1, 8]: 0.02%; RRT (%) 0.88 [1, 8]: 0.05%; moisture absorbed (DVS) ([2]; at 95% RH): 0.4%
Cc1cc(N2CCN(Cc3cc(F)c(C(=O)NS(=O)(=O)C4CC4)cc3Cl)CC2)ccc1Cl [crystal form D, 5-chloro-4-((4-(4-chloro-3-methylphenyl)piperazin-1-yl)methyl)-N-(cyclopropylsulfonyl)-2-fluorobenzamide]	0.018 (≈ 36 µM)	0.002	0.016	0.005 (≈ 9.99 µM)	0.03	99.90	0.03	0.11	100.2	99.90	0.03	0.09	98.9	0.03	99.90	0.03	0.11	99.1	99.91	almost no hygroscopicity	RRT (%) 0.79 [1, 5]: 0.04%; RRT (%) 0.79 [1, 6]: 0.04%; RRT (%) 0.88 [1, 6]: 0.02%; RRT (%) 0.79 [1, 7]: 0.04%; RRT (%) 1.05 ([1]; 60° C. 21 d): 0.03%; Total impurities (%) ([1]; 60° C. 21 d): 0.09%; RRT (%) 0.79 [1, 8]: 0.04%; RRT (%) 0.88 [1, 8]: 0.02%; moisture absorbed (DVS) ([2]; at 95% RH): 0.07%
Cc1cc(N2CCN(Cc3cc(F)c(C(=O)NS(=O)(=O)C4CC4)cc3Cl)CC2)ccc1Cl [crystal form E-1, 5-chloro-4-((4-(4-chloro-3-methylphenyl)piperazin-1-yl)methyl)-N-(cyclopropylsulfonyl)-2-fluorobenzamide]	0.019 (≈ 38 µM)	0.002	0.035	>2.669																	
Cc1cc(N2CCN(Cc3cc(F)c(C(=O)NS(=O)(=O)C4CC4)cc3Cl)CC2)ccc1Cl [crystal form E-3, 5-chloro-4-((4-(4-chloro-3-methylphenyl)piperazin-1-yl)methyl)-N-(cyclopropylsulfonyl)-2-fluorobenzamide]	0.016 (≈ 32 µM)		0.096	>2.780	0.08	99.79	0.06	0.26	106.4	99.71	0.04	0.29	99.5	0.08	99.78	0.06	0.22	105.1	99.71	has hygroscopicity	solubility at 4 h (Solubility experiment; buffer pH 4.5, pH 4.5, aqueous buffer, thermodynamic from solid, buffer pH 4.5, room temperature, read-out: Solubility (mg/mL) pH4.5): 0.002 mg/mL (≈ 4 µM); RRT (%) 0.54 [1, 5]: 0.13%; RRT (%) 0.54 [1, 6]: 0.09%; RRT (%) 0.86 [1, 6]: 0.07%; RRT (%) 0.54 [1, 7]: 0.09%; RRT (%) 1.05 ([1]; 60° C. 21 d): 0.04%; Total impurities (%) ([1]; 60° C. 21 d): 0.30%; RRT (%) 0.54 [1, 8]: 0.08%; RRT (%) 0.86 [1, 8]: 0.07%; moisture absorbed (DVS) ([2]; when RH is 85%): 2%
Cc1cc(N2CCN(Cc3cc(F)c(C(=O)NS(=O)(=O)C4CC4)cc3Cl)CC2)ccc1Cl [crystal form F, 5-chloro-4-((4-(4-chloro-3-methylphenyl)piperazin-1-yl)methyl)-N-(cyclopropylsulfonyl)-2-fluorobenzamide]	0.017 (≈ 34 µM)	0.002	0.050	>3.154	0.05	99.86	0.03	0.14	98.4	99.90	0.04	0.10	99.7	0.03	99.87	0.04	0.13	101.0	99.80	has hygroscopicity	RRT (%) 0.79 [1, 5]: 0.06%; RRT (%) 0.79 [1, 6]: 0.04%; RRT (%) 0.79 [1, 7]: 0.06%; RRT (%) 1.05 ([1]; 60° C. 21 d): 0.03%; Total impurities (%) ([1]; 60° C. 21 d): 0.20%; RRT (%) 0.79 [1, 8]: 0.05%; RRT (%) 0.86 [1, 8]: 0.03%; RRT (%) 0.88 [1, 8]: 0.02%; moisture absorbed (DVS) ([2]; when RH is 85%): 4%
Cc1cc(N2CCN(Cc3cc(F)c(C(=O)NS(=O)(=O)C4CC4)cc3Cl)CC2)ccc1Cl [crystal form I, 5-chloro-4-((4-(4-chloro-3-methylphenyl)piperazin-1-yl)methyl)-N-(cyclopropylsulfonyl)-2-fluorobenzamide]																				slightly hygroscopic	stability of the crystal form (assessment in words) [3]: good stability
Cc1cc(N2CCN(Cc3cc(F)c(C(=O)NS(=O)(=O)C4CC4)cc3Cl)CC2)ccc1Cl [crystal form II, 5-chloro-4-((4-(4-chloro-3-methylphenyl)piperazin-1-yl)methyl)-N-(cyclopropylsulfonyl)-2-fluorobenzamide]																				hygroscopic	
